Measurements published in patent US20230320996A1, “NANOPARTICLES AND METHODS OF MANUFACTURE THEREOF” (Hillstream BioPharma, Inc., priority 2020, published 2023).

Assays:
BALB/c mice = experiment: Maximum tolerated dose, body weight reduction as response; assay type: in vivo; details: intravenously
Protocol: Next, the maximum tolerated dose of salinomycin and salinomycin-loaded PLA based hybrid block copolymeric salinomycin nanoparticle was probed in BALB/c mice. Mice were administered the salinomycin loaded hybrid block copolymeric nanoparticles once a week for 3 weeks. The body weight reduction was observed as a phenotypic response. The dose-response of salinomycin and the salinomycin nanoparticle was observed by administration intraperitoneally (FIG. 7) and intravenously (FIG. 8). For intraperitoneal administration, mice were administered salinomycin and salinomycin loaded nanoparticles at 5 mg/kg, 7.5 mg/kg, 10 mg/kg. Further, only the salinomycin nanoparticles were administered at 12 mg/kg and 15 mg/kg, intraperitoneally. Three mice were probed at each dose for salinomycin and salinomycin loaded nanoparticle. For intravenous administration, mice were administered salinomycin and salinomycin loaded nanoparticles at 5 mg/kg. Only salinomycin nanoparticles were administered at 1 mg/kg, and 7.5 mg/kg. Further another group of salinomycin at 2.5 mg/kg was also tested. Three mice were probed at each dose for salinomycin and salinomycin loaded nanoparticle. It was observed that free salinomycin was tolerated up to a dose of 10 mg/kg and the salinomycin loaded nanoparticle was tolerated up to 15 mg/kg, when administered intraperitoneally. […]

MDA-MB 231 cells = experiment: Inhibition of cell proliferation; assay type: cell-based; details: Homo sapiens, 5000 cells per well, 0.01-100 μM, 72 hours
Protocol: (§1) Next, the potency of inhibition of salinomycin-induced cell growth was probed by comparing the inhibition with salinomycin and salinomycin nanoparticle in MCF-7, MDA-MB 231 and MDA-MB 468 cell lines. […] (see FIG. 6A, B, C). MCF-7 cells at concentration of 5000 cells per well were treated with salinomycin or salinomycin nanoparticles from a concentration of 0.01-100 μM respectively for 72 hours. […] MDA-MB 468 cells at concentration of 5000 cells per well were treated with salinomycin or salinomycin nanoparticles from a concentration of 0.01-100 μM respectively for 72 hours. […] MDA-MB 231 cells at concentration of 5000 cells per well were treated with salinomycin or salinomycin nanoparticles from a concentration of 0.01-100 μM respectively for 72 hours.

MCF-7 cells = experiment: Inhibition of cell proliferation; assay type: cell-based; details: Homo sapiens, MCF7; 5000 cells per well, 0.01-100 μM, 72 hours
Protocol: as §1

MDA-MB 468 cells = experiment: Inhibition of cell proliferation; assay type: cell-based; details: Homo sapiens, 5000 cells per well, 0.01-100 μM, 72 hours
Protocol: as §1

CC[C@@H](C(=O)[C@@H](C)[C@@H](O)[C@H](C)[C@@H]1O[C@@H]([C@@H](CC)C(=O)O)CC[C@@H]1C)[C@H]1O[C@]2(C=C[C@@H](O)[C@]3(CC[C@@](C)([C@H]4CC[C@](O)(CC)[C@H](C)O4)O3)O2)[C@H](C)C[C@@H]1C [salinomycin]
lethal dose (BALB/c mice): 5 mg/kg
IC50 (MDA-MB 231 cells): 3460 nM
IC50 (MCF-7 cells): 2270 nM
IC50 (MDA-MB 468 cells): 1470 nM
